Test results reported in BindingDB's records for patent US20250235456 (Iambic Therapeutics, 2025).
pIC50: −log10 of the molar value.

Key:
[1] = biological target: Cyclin-dependent kinase 6/G1/S-specific cyclin-D3 (Homo sapiens, UniProt Q00534); assay: CDK6/Cyclin D3 ADP-Glo Kinase Assay
Description: (§1) The purpose of the CDK6/Cyclin D3 assay is to evaluate the inhibition (% inhibition and IC50 values) in the presence of small molecule inhibitors by using a Luminescent based ADP-Glo assay. CDK6/Cyclin D3 catalyzes the production of ADP from ATP. ADP-Glo assay monitors ADP producing biochemical reactions. ADP-Glo is performed in 2 steps upon completion of kinase reaction: a combined termination of kinase reaction and depletion of remaining ATP in the first step, and conversion of generated ADP to ATP and the newly produced ATP to light output using luciferase/luciferin reaction in the second step. The luminescent signal generated is proportional to the ADP concentration produced and is correlated with the kinase activity. CDK6/Cychin D3 was purchased from Carna. […] The assay was initiated with the addition of ATP-containing substrate solution, following a 30-minute pre-incubation of enzyme and inhibitor at room temperature in the reaction mixture. The reaction was stopped after 90 minutes at room temperature by the addition of 10 μL of ADP-GLO Reagent. After a 90-minute incubation, 20 μL of Kinase Detection Reagent was added. Samples were incubated for 40 minutes, after which plate well luminescence was measured on a Envision microplate reader. The IC50 determinations were made from a plot of the fractional velocity as a function of inhibitor concentration fit to the 4 parameters IC50 equation.

[2] = biological target: Cyclin-dependent kinase 1 (Homo sapiens, UniProt P06493); assay: CDK1/Cyclin B1 ADP-Glo Kinase Assay
Cyclin-dependent kinase 1, sequence (P06493 whole entry): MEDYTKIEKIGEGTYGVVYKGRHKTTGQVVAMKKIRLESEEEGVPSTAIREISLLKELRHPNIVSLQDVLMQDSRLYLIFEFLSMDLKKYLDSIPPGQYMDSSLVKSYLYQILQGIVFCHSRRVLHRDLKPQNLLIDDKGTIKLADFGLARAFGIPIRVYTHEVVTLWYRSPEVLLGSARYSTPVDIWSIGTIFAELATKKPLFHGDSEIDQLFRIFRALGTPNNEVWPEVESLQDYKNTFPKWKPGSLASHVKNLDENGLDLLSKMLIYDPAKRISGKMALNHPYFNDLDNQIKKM
Description: as §1, with “CDK1/Cyclin Bi” for “the CDK6/Cyclin D3”, “values)” for “values) in the presence”, “CDK1/Cyclin B1” for “CDK6/Cyclin D3”, “CDK1/Cyclin B1” for “CDK6/Cychin D3”, “Carna (Cat 04-102).” for “Carna.”, “90 minute” for “90-minute”

[3] = biological target: Cyclin-dependent kinase 2/G1/S-specific cyclin-E1 (Homo sapiens, UniProt P24941); assay: CDK2/Cyclin E1 ADP-Glo Kinase Assay
Description: The purpose of CDK2/Cyclin El assay is to evaluate the inhibition (% inhibition and IC50 values) of small molecule inhibitors by using a Luminescent based ADP-Glo assay. CDK2/Cyclin El full length catalyzes the production of ADP from ATP. ADP-Glo assay monitors ADP producing biochemical reactions. ADP-Glo is performed in 2 steps upon completion of kinase reaction: a combined termination of kinase reaction and depletion of remaining ATP in the first step, and conversion of generated ADP to ATP and the newly produced ATP to light output using luciferase/luciferin reaction in the second step. The luminescent signal generated is proportional to the ADP concentration produced and is correlated with the kinase activity. CDK2/Cyclin E1 was purchased from Eurofins (Cat 14-475M). […] The assay was initiated with the addition of ATP-containing substrate solution, following a 30-minute pre-incubation of enzyme and inhibitor at room temperature in the reaction mixture. The reaction was stopped after 90 minutes at room temperature by the addition of 10 μL of ADP-GLO Reagent. After a 90 minute incubation, 20 uL of Kinase Detection Reagent was added. Samples were incubated for 40 minutes, after which plate well luminescence was measured on a Envision microplate reader. The IC50 determinations were made from a plot of the fractional velocity as a function of inhibitor concentration fit to the 4 parameters IC50 equation.

Cyclin-dependent kinase 6/G1/S-specific cyclin-D3, sequence (Q00534 whole entry): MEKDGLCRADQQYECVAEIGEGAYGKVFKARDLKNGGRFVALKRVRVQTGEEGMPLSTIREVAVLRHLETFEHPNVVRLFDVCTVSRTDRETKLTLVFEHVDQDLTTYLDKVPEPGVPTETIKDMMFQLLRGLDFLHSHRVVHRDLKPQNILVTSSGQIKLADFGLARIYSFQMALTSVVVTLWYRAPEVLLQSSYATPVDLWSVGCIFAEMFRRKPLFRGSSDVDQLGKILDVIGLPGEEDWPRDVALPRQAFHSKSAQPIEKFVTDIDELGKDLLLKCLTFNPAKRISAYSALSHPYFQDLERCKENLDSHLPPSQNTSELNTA
Cyclin-dependent kinase 6/G1/S-specific cyclin-D3, sequence (P30281 whole entry, further chain): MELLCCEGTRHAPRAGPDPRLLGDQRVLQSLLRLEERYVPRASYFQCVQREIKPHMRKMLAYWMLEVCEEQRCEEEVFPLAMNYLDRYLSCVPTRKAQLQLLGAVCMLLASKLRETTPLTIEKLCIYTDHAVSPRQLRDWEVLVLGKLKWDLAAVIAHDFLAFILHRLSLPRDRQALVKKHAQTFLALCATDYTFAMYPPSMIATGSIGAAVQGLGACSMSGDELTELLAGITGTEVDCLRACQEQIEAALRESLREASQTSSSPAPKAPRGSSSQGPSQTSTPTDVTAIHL

Structure (SMILES)	pIC50 [1]	pIC50 [2]	pIC50 [3]	IC50 [3]
CN1Cc2ccc(Nc3ncc4ccnc(N5CCC6(C5)CC6(F)F)c4n3)cc2C1 (stereo unspecified) [US20250235456, Compound 22]	> 6.70	> 6.70	> 6.70	
Cc1cc2cnc(Nc3cnn(CC4(N(C)C)CC4)c3)nc2c(N2CCC3(C2)CC3(F)F)n1 (stereo unspecified) [US20250235456, Compound 36]		< 5.70		in the range around 350 nM
Cc1cc2cnc(NC3CC4CC3CN4C)nc2c(N2CCC3(C2)CC3(F)F)n1 (stereo unspecified) [US20250235456, Compound 43]	6.30 to 6.70	< 5.70		in the range around 1250 nM
Cc1cc2cnc(NC3CCN(S(=O)(=O)C4CC4)CC3)nc2c(N2CC3(C2)CN(C2CC2)C3)n1 [US20250235456, Compound 48]	6.30 to 6.70		> 6.70	
Cc1cc2cnc(NC3CCN(S(=O)(=O)C4CC4)CC3)nc2c(N2CC(OC3CC3)C2)n1 [US20250235456, Compound 57]	> 6.70	6.30 to 6.70	> 6.70	
Cc1cc2cnc(NC3CCN(S(=O)(=O)C4(C)CC4)CC3)nc2c(N2CCC3(CN(C)C3)C2)n1 [US20250235456, Compound 59]	> 6.70		> 6.70	
Cc1cc2cnc(NC3CCN(S(=O)(=O)C4CC4)CC3)nc2c(N2CC3(CC(O)C3)C2)n1 [US20250235456, Compound 66]	> 6.70		> 6.70	
Cc1cc2cnc(NC3CCN(S(=O)(=O)CCC4(C)CC4)CC3)nc2c(N2CC(F)(F)C3(CNC3)C2)n1 [US20250235456, Compound 67]	6.30 to 6.70	6.30 to 6.70	> 6.70	
Cc1cc2cnc(NC3CCN(S(C)(=O)=O)CC3)nc2c(C2CC(C)(CO)C2)n1 (stereo unspecified) [US20250235456, Compound 69]		> 6.70		
Cc1cc2cnc(NC3CCN(S(C)(=O)=O)CC3)nc2c(N2CC3(CNCC3(F)F)C2)n1 [US20250235456, Compound 85]	> 6.70	> 6.70	> 6.70	
Cc1cc2cnc(N[C@@H]3CCOC[C@H]3O)nc2c(N2CC(O)(C3CC3)C2)n1 [US20250235456, Compound 86]	6.30 to 6.70	< 5.70		in the range around 350 nM
CS(=O)(=O)N1CCC(Nc2ncc3cc(C(F)F)nc(N4CC5(CCNCC5(F)F)C4)c3n2)CC1 [US20250235456, Compound 90]	> 6.70		> 6.70	
Cc1cc2cnc(NC3CCN(S(=O)(=O)c4ccn(C)n4)CC3)nc2c(N2CC(F)(F)C3(CNC3)C2)n1 [US20250235456, Compound 94]			> 6.70	
Cc1cc2cnc(NC3CCN(S(C)(=O)=O)CC3)nc2c(N2CC3(CNCC3C(F)F)C2)n1 (stereo unspecified) [US20250235456, Compound 100]	> 6.70	> 6.70	> 6.70	
Cc1cc2cnc(NC3CCN(S(C)(=O)=O)CC3)nc2c(N2CC3(CN(C)CC3(F)F)C2)n1 [US20250235456, Compound 101]	> 6.70	6.30 to 6.70	> 6.70	
